For the assay, the target named is T1, γ-secretase (Homo sapiens, UniProt P49768).
T1 construct: endogenous in cells; host or cells: HeLa cells
Briefly: γ-secretase luciferase reporter assay (Gal4VP16 inducer constructs). The format is cell-based. Also on record: dose or concentration left out as unconfirmed. As to conditions: lysed after 16 hrs; for nuclear translocation of the inducer fragment (luciferase activity), APP: APP-Gal4VP16 inducer in Hela cells; for nuclear translocation of the inducer fragment (luciferase activity), Notch: NotchΔE-Gal4VP16 inducer in Hela cells. The source says: In wild-type hippocampal neurons, TLN localizes to the plasmalemma whereas in 30% of PS1−/− neurons, TLN additionally accumulates in large somatic structures, the identity of which remained elusive (Annaert et al., 2001). […] Therefore we tested whether TLN is a γ-secretase substrate. In 15 day old PS1−/− hippocampal cultures we could not detect any TLN C-terminal fragment (CTF) as apposed to APP-CTF that readily accumulate. Even upon Semliki Forest Virus (SFV)-induced overexpression, no TLN-CTF was detected. Since no putative mechanism of shedding of the TLN ectodomain is known, we generated a TLNΔE that could serve as a potential γ-secretase substrate. No intracellular domain fragments were however detected indicating the absence of γ-secretase cleavage. […] Release of a potential intracellular domain of TLN can be measured via the activity of luciferase. […] To investigate whether the TLN transmembrane domain could be a γ-secretase substrate in the context of the APP protein, we swapped the transmembrane regions of TLN and APP to create an APP/TLNTMR-chimaera. Even in this case no activity could be detected. Therefore we conclude that TLN is most likely not a γ-secretase substratum.
pSFV constructs encoding human APP, murine TLN and TLNΔE have been described (Annaert et al., 2001). APP and NotchΔE were cloned into the EcoRV site in front of the Gal4VP16 sequence in pIPAdApt vector. A construct encoding 10 aa of the ectodomain, the transmembrane and cytosolic domains of TLN was obtained by PCR and ligated in pGEMT containing the TLN signal peptide (SP). SP-TLNΔE was next cloned into pIPAdApt and GAL 4VP16 was inserted resulting in a pIPAdApt-SP-TLNΔE-Gal4-VP16 construct. For the APP/TLNTMR chimaera, the coding region for APP-TMR was replaced by a PCR fragment encoding the TLN-TMR. Luciferase assay. Hela cells were transfected with 200 ng pFRluc plasmid (UAS-responsive luciferase construct, Stratagene) and 200 ng inducer plasmid using Fugene ([…]) and after 16 hrs lysed and assayed (Victor2, PerkinElmer).
In general terms: Reporter assays use an easily measured gene product as a stand-in for the process of interest.

The structures appear in SMILES notation.

For the compound `C[C@H](NC(=O)Cc1cc(F)cc(F)c1)C(=O)N[C@H](C(=O)OC(C)(C)C)c1ccccc1` [DAPT], the “nuclear translocation of the inducer fragment (luciferase activity), APP” value is “strongly inhibited” and the “nuclear translocation of the inducer fragment (luciferase activity), Notch” value is recorded as “strongly inhibited”.
As for `CC(C)C[C@H](NC(=O)[C@H](Cc1ccccc1)C[C@@H](O)[C@H](Cc1ccccc1)NC(=O)OC(C)(C)C)C(=O)N[C@@H](Cc1ccccc1)C(N)=O` [L685,458], the “nuclear translocation of the inducer fragment (luciferase activity), APP” value is “strongly inhibited” and the “nuclear translocation of the inducer fragment (luciferase activity), Notch” value is listed as “strongly inhibited”.

(Values after patent US20080057054A1, “Modulation of Phagocytosis in Neurons” (Vlaams Interuniversitair Instituut Voor Biotechnol, priority 2004, published 2008).)
